Columns and labels:
[1] = test system: U2OS.SSTR2 cells; test: Uptake/internalization studies in U2OS.SSTR2 cells; assay type: cell-based, human
Description: Cells were seeded in 6-well plates 24 h before the experiment (7 × 10^5 cells/well). […] The membrane-bound fraction was collected by incubating cells with an acid buffer (50 mM glycine, 100 mM NaCl, pH 2.8) for 10 min at rt. The internalized fraction was determined by lysing the cells with 1 M NaOH for 5 min at rt. Both fractions were measured in a gamma counter, and data were analyzed in GraphPad Prism v9 and expressed as percentage of added dose.

[2] = Ex vivo biodistribution in H69-tumor bearing mice; conditions: mouse, in vivo
Description: (§1) Six-week‐old female Balb/c nu/nu‐specific mice (Janvier Labs, Le Genest‐Saint‐Isle, France) were housed in individually ventilated cages (4 mice/cage). Upon arrival, mice were acclimated for one week, with access to food and water ad libitum. Mice were subcutaneously inoculated on the right shoulder with NCI-H69 cells (5 × 10^6 cells) suspended in 100 μL of 1/3 Matrigel (Corning Inc.; Corning, NY, USA) and 2/3 Hank’s balanced salt solution (Gibco; Paisley, UK). NCI-H69 xenografts were allowed to grow for 2 weeks.
(§2) At 3 selected time points (1, 4 and 24 h; n = 4) p.i., blood was collected via retro-orbital puncture under isoflurane/O2 anesthesia, after which the mice were sacrificed via cervical dislocation. The tumor and organs of interest (heart, lungs, liver, spleen, stomach, large intestine, small intestine, pancreas, kidneys, muscle, skin, bone) were excised, washed in PBS and blotted dry. […] To determine the total injected radioactivity per animal, a calibration curve with indium-111 was established using the gamma counter. The percentage of injected dose per gram (% ID/g) was determined for each tissue and corrected for both the injected activity and % ID present at the injection site (the tail). Then, the tumor and the organs were placed in a petri dish and ex vivo optical imaging was performed with the IVIS Spectrum system (Perkin Elmer, Waltham, MA, USA) using the following settings for all measurements: FOV 19.5 cm, medium binning, f2, 60 s exposure with an excitation/emission filter of 646 nm/662 nm. Living Image version 4.5.2 software (Perkin Elmer) was used to perform data analysis by drawing regions of interest around the organ/tissue to quantify the radiant efficiency {(photons/second/cm^2/steradian)/(μW/cm^2)}.

[3] = test system: H69-xenograft Balb/c nu/nu mice; test: Ex vivo biodistribution in H69-tumor bearing mice; conditions: for Uptake in Tumor: i.v., n = 4
Description: as §1, §2

tissue uptake at 4 h ([2]; Uptake in Intestines, 4 h block (co-injected 50 nmol DOTA-TATE), n = 4): 0.57 ± 0.35 %ID/g | tissue uptake at 4 h ([2]; Uptake in Kidneys, 4 h block (co-injected 50 nmol DOTA-TATE), n = 4): 7.75 ± 1.03 %ID/g | tissue uptake at 4 h ([2]; Uptake in Liver, 4 h block (co-injected 50 nmol DOTA-TATE), n = 4): 0.15 ± 0.08 %ID/g | tissue uptake at 4 h ([2]; Uptake in Skin, 4 h block (co-injected 50 nmol DOTA-TATE), n = 4): 0.28 ± 0.13 %ID/g | tissue uptake at 4 h ([2]; Uptake in Stomach, 4 h block (co-injected 50 nmol DOTA-TATE), n = 4): 0.1 ± 0.03 %ID/g | tissue uptake at 1 h ([2]; iv, Uptake in Blood, 1 h p.i., n = 4): 0.41 ± 0.12 %ID/g | tissue uptake at 24 h ([2]; iv, Uptake in Blood, 24 h p.i., n = 4): 0.04 ± 0.03 %ID/g | tissue uptake at 4 h ([2]; iv, Uptake in Bones, 4 h p.i., n = 4): 0.13 ± 0.03 %ID/g | tissue uptake at 24 h ([2]; iv, Uptake in Bones, 24 h p.i., n = 4): 0.14 ± 0.05 %ID/g | tissue uptake at 1 h ([2]; iv, Uptake in Heart, 1 h p.i., n = 4): 0.16 ± 0.08 %ID/g | tissue uptake at 4 h ([2]; iv, Uptake in Heart, 4 h p.i., n = 4): 0.04 %ID/g | tissue uptake at 1 h ([2]; iv, Uptake in Intestines, 1 h p.i., n = 4): 0.74 ± 0.3 %ID/g | tissue uptake at 4 h ([2]; iv, Uptake in Intestines, 4 h p.i., n = 4): 0.77 ± 0.24 %ID/g | tissue uptake at 24 h ([2]; iv, Uptake in Intestines, 24 h p.i., n = 4): 0.13 ± 0.01 %ID/g | tissue uptake at 1 h ([2]; iv, Uptake in Kidneys, 1 h p.i., n = 4): 12.2 ± 1.33 %ID/g | tissue uptake at 4 h ([2]; iv, Uptake in Kidneys, 4 h p.i., n = 4): 10.6 ± 0.39 %ID/g | tissue uptake at 24 h ([2]; iv, Uptake in Kidneys, 24 h p.i., n = 4): 6.93 ± 1.02 %ID/g | tissue uptake at 1 h ([2]; iv, Uptake in Liver, 1 h p.i., n = 4): 0.21 ± 0.03 %ID/g | tissue uptake at 4 h ([2]; iv, Uptake in Liver, 4 h p.i., n = 4): 0.16 ± 0.01 %ID/g | tissue uptake at 24 h ([2]; iv, Uptake in Liver, 24 h p.i., n = 4): 0.08 ± 0.01 %ID/g | tissue uptake at 1 h ([2]; iv, Uptake in Lungs, 1 h p.i., n = 4): 0.86 ± 0.09 %ID/g | tissue uptake at 4 h ([2]; iv, Uptake in Lungs, 4 h p.i., n = 4): 0.52 ± 0.13 %ID/g | tissue uptake at 4 h ([2]; iv, Uptake in Muscle, 4 h p.i., n = 4): 0.02 %ID/g | tissue uptake at 24 h ([2]; iv, Uptake in Muscle, 24 h p.i., n = 4): 0.01 ± 0.01 %ID/g | tissue uptake at 1 h ([2]; iv, Uptake in Pancreas, 1 h p.i., n = 4): 2.9 ± 0.6 %ID/g | tissue uptake at 4 h ([2]; iv, Uptake in Pancreas, 4 h p.i., n = 4): 1.3 ± 0.1 %ID/g | tissue uptake at 24 h ([2]; iv, Uptake in Pancreas, 24 h p.i., n = 4): 0.6 ± 0.05 %ID/g | tissue uptake at 1 h ([2]; iv, Uptake in Skin): 0.49 ± 0.26 %ID/g | tissue uptake at 4 h ([2]; iv, Uptake in Skin, 4 h p.i., n = 4): 0.29 ± 0.09 %ID/g | tissue uptake at 24 h ([2]; iv, Uptake in Skin, 24 h p.i., n = 4): 0.13 ± 0.02 %ID/g | tissue uptake at 24 h ([2]; iv, Uptake in Spleen): 0.11 ± 0.01 %ID/g | tissue uptake at 4 h ([2]; iv, Uptake in Spleen, 4 h p.i., n = 4): 0.13 ± 0.02 %ID/g | tissue uptake at 1 h ([2]; iv, Uptake in Stomach, 1 h p.i., n = 4): 1.84 ± 0.18 %ID/g | tissue uptake at 4 h ([2]; iv, Uptake in Stomach, 4 h p.i., n = 4): 1.23 ± 0.16 %ID/g | tissue uptake at 24 h ([2]; iv, Uptake in Stomach, 24 h p.i., n = 4): 0.51 ± 0.13 %ID/g | tissue uptake at 1 h ([2]; iv, Uptake in Tumor, 1 h p.i., n = 4): ~5 %ID/g | tissue uptake at 4 h ([2]; iv, Uptake in Tumor, 4 h p.i., n = 4): 5.47 ± 0.3 %ID/g | tissue uptake at 24 h ([2]; iv, Uptake in Tumor, 24 h p.i., n = 4): ~3 %ID/g | Uptake in Tumor ([3]; 1 h p.i.): 5.55 ± 1.31 % ID/g | Uptake in Tumor ([3]; 24 h p.i.): 3.19 ± 0.29 % ID/g
SMILES: C[C@@H](O)[C@H](NC(=O)[C@@H]1CSSC[C@H](NC(=O)[C@@H](Cc2ccccc2)NC(=O)CN2CCN(CC(=O)O)CCN(CC(=O)O)CCN(CC(=O)O)CC2)C(=O)N[C@@H](Cc2ccc(O)cc2)C(=O)N[C@H](Cc2c[nH]c3ccccc23)C(=O)N[C@@H](CCCCN)C(=O)N[C@@H]([C@@H](C)O)C(=O)N1)C(=O)O [[^111In]In-DOTA-TATE, metal not drawn, reference compound]
Internalized fraction of radioactivity ([1]; 10^-9 M, 90 min, 37 °C): 94% | Total uptake ([1]; 10^-9 M, 90 min, 37 °C, % of added dose per 1,000,000 cells, n = 3): 46.22 ± 4.58 % AD | Cell uptake with excess of unlabeled DOTA-TATE ([1]; 50-fold excess DOTA-TATE): almost completely blocked | Tumor uptake reduction by co-injection of an excess of DOTA-TATE ([3]; 4 h p.i., compared to the unblocked group): 98%

— PMC11111636 (EJNMMI Radiopharmacy and Chemistry, 2024)
